This note sets out measurements from patent publication US20240299388A1, “ERK1/2 AND SHP2 INHIBITORS COMBINATION THERAPY” (Erasca, Inc., priority 2021, published 2024).

The subject of test [1] is KRAS G12V NSCLC CDX model NCI-H441. Nature of the test: In vivo CDX xenograft efficacy, NCI-H441. Also on record: species or system Balb/c nude mice. The note with it: oral. The method, then: (§1) The vehicle/control article, 0.5% Methyl Cellulose & 0.1% Tween 80 or 100 mM acetic acid in deionized water with pH adjustment to 4.8-5.0, was prepared and stored under ambient conditions throughout the study period.
(§2) The test article, compound 1, was freshly prepared in vehicle of 0.5% Methyl Cellulose & 0.1% Tween 80 weekly and stored under ambient conditions. The combination agent, compound 2, was freshly prepared in vehicle of 100 mM acetic buffer weekly and stored under ambient conditions.
(§3) Female Balb/c nude mice were purchased from the Beijing Vital River Laboratory Animal Technology Co., Ltd. Mice were hosted at special pathogen-free (SPF) environment of vivarium facility and acclimated to their new environment for at least 3 days prior to initiation of any experiments. Mice were between 6-8 weeks of age at the time of implantation.
NCI-H441 is a human NSCLC cell line that harbors a KRAS^G12V mutation. The NCI-H441 cell line was purchased from the American Type Culture Collection (ATCC® HTB-174™). NCI-H441 cells were cultured in medium containing RPMI-1640 plus 10% Fetal Bovine Serum (FBS), at 37° C. in an atmosphere of 5% CO2 in air. NCI-H441 cells in 200 μL cell suspensions containing 5×10^6 cells mixed with 50% Matrigel were implanted into mice subcutaneously. When tumor volumes reached a mean of 200 mm^3, tumor-bearing mice were randomized into different groups with 8 mice in each group and treatment started on the day of randomization.
(§4) Mice were dosed by oral administration of vehicle control solution, compound 1, or compound 2 in monotherapy treatment groups. Mice were dosed by oral administration of combinations, including compound 1 with compound 2. The dosing volume was 5 mL/kg for each compound and interval of BID regimen was 8 hours. In the combination of compound 1 with compound 2, compound 1 was dosed at one-hour post compound 2 QD or first BID dose. […] The study was terminated at the end of 4-week treatment or when tumor volume in vehicle control group reached 2,000 mm^3.

For test [2], the system named is KRAS G12A NSCLC CDX model NCI-H2009. Nature of the test: In vivo CDX xenograft efficacy, NCI-H2009. The note with it: oral. Also on record: species or system Balb/c nude mice. How it is done:
as §1, §2, §3
NCI-H2009 is a human NSCLC cell line that harbored a KRAS^G12A mutation. The NCI-H2009 cell line was purchased from the American Type Culture Collection (ATCC® CRL-5911). NCI-H2009 cells were cultured in medium containing RPMI-1640 plus 10% Fetal Bovine Serum (FBS) and supplemented with Glutamax and pyruvate at 37° C. in an atmosphere of 5% CO2 in air. NCI-H2009 cells in 100 μL cell suspensions containing 5×10^6 cells mixed with 50% Matrigel were implanted into mice subcutaneously. When tumor volumes reached a mean of 200 mm^3, tumor-bearing mice were randomized into different groups with 8 mice in each group and treatment started on the day of randomization.
as §4

Turning to `COCOC[C@H]1C[C@H]2COc3c(Sc4cnc(N5CCC6(CC5)CO[C@@H](C)[C@H]6N)c(CO)n4)ccnc3N2C1` [Compound 2, (3-((3S,4S)-4-amino-3-methyl-2-oxa-8-azaspiro[4.5]decan-8-yl)-6-(((6aS,8S)-8-((methoxymethoxy)methyl)-6a,7,8,9-tetrahydro-6H-pyrido[3,2-b]pyrrolo[1,2-d][1,4]oxazin-4-yl)thio)pyrazin-2-yl)methanol], the TGI in test [1] (monotherapy 15 mg/kg QD) was 87%; in test [1] (monotherapy 30 mg/kg QD), 101%; in test [2] (monotherapy 15 mg/kg QD), 73%; in test [2] (monotherapy 30 mg/kg QD) it was 90%.
Regarding `Cc1cnc(NC2CCOCC2)nc1-n1cnc(C(=O)N[C@H](CN)c2cc(F)cc(Cl)c2)c1` [Compound 1, (S)—N-(2-amino-1-(3-chloro-5-fluorophenyl)ethyl)-1-(5-methyl-2-((tetrahydro-2H-pyran-4-yl)amino)pyrimidin-4-yl)-1H-imidazole-4-carboxamide], the TGI is 115% in test [1] (monotherapy 30 mg/kg BID), 94% in test [1] (monotherapy 30 mg/kg QD) and 93% in test [2] (monotherapy 30 mg/kg BID).
